Results taken from patent US9170264B2, “Methods of monitoring for adherence to aripiprazole therapy” (Ameritox, Ltd., priority 2013, dated 2015).
Several values for one entry are separate records, joined by “and”; a condition that tells them apart may be missing. Equal entries are not always repeated.

Columns and labels:
[1] = Urine testing of aripiprazole positive patients in a controlled study, LC/MSMS (Example 2); type: in vivo, human; details: 5 mg q day, individual samples, LLOQ aripiprazole 5, dehydroaripiprazole 5, OPC3373 25 ng/mL
Procedure: (§1) The concentration of any analyte described in the present disclosure may be determined (e.g., measured) by any suitable quantification method. In some embodiments, the concentration of an analyte (e.g., aripiprazole, dehydroaripiprazole, and/or OPC3373) is measured by tandem liquid chromatography-mass spectrometry-mass spectrometry (“LC/MSMS”). In some embodiments, the concentration of an analyte (e.g., aripiprazole, dehydroaripiprazole, and/or OPC3373) is measured by tandem liquid chromatography-High Resolution mass spectrometry (Time of Flight (TOF)) (“LC/MS(TOF)”). In some embodiments, the concentration of an analyte (e.g., aripiprazole, dehydroaripiprazole, and/or OPC3373) is measured by direct injection mass spectrometry-mass spectrometry ([…]) e.g., such systems as RapidFire™ (Agilent) or Laser Diode Thermal Desorption (“LDTD”) (Phytronix) to introduce samples into the mass spectrometer; either triple quadrupole (i.e., MSMS) or exact mass (i.e., Time of Flight, Orbitrap, etc.) instruments
An additional set of aripiprazole positive patients was monitored for levels of aripiprazole, dehyrdroaripiprazole, and OPC3373 in their urine.
Dehydroaripiprazole: 5 ng/mL
These analyses were completed using LC/MSMS.

[2] = Urine testing for compliance over 5 days, patients prescribed 2 mg/day Abilify (Example 8); type: in vivo, human; design: Urine concentration, individual subject: unit not given here
Procedure: as §1
The urine of 15 patients who were prescribed 2 mg of Abilify® (aripiprazole) was tested for compliance over 5 days (Table 14). […] Without OPC3373, only 24% were determined to be positive with patients just being below the reporting cutoffs for both aripiprazole and dehydroaripiprazole. Thus, use of OPC3373 as a urine biomarker at this lower dose makes compliance monitoring for Abilify® possible. […] However, OPC3373 in subject M confirmed the subject's adherence to aripirazole therapy despite the low observed creatinine level.

[3] = cited from earlier work
[4] = Levels of OPC3373, aripiprazole and dehydroaripiprazole in urine of humans taking chronic doses of aripiprazole (Example 1); type: in vivo, human; details: for Levels in Human Urine: individual specimens, chronic doses of aripiprazole, LOQ OPC3373 100 ng/mL, dehydroaripiprazole 5 ng/mL, aripiprazole 5 ng/mL
Procedure: as §1
The appearance of OPC3373 (4-[(2-Oxo-1,2,3,4-tetrahydro-7-quinolinyl)oxy]butanoic acid, BMS-337047) as the major aripiprazole metabolite in the urine can be used to help monitor patient adherence to aripiprazole therapy. While analysis of both aripiprazole and the plasma metabolite, dehydroaripiprazole, can be used to monitor patient adherence, the relatively low levels of these molecules in the urine frequently results in “false negatives” in patients known to be taking aripiprazole.

[5] = Urine testing for compliance over 5 days, patients prescribed 15 mg/day Abilify (Example 5); type: in vivo, human; design: urine concentration: unit not given here; details: for urine concentration, Avg / urine concentration, Max / urine concentration, Min: n 69 samples
Procedure: as §1
The urine of 23 patients who were prescribed 15 mg of Abilify® (aripiprazole) was tested for compliance over 5 days (Table 7). […] Without OPC3373, only 78% were determined to be positive with patients just being below the reporting cutoffs for both aripiprazole and dehydroaripiprazole. […] Thus, use of OPC3373 as a urine biomarker at this dose adds value to compliance monitoring for Abilify®.

[6] = Urine testing for compliance over 5 days, patients prescribed 5 mg/day Abilify (Example 7); type: in vivo, human; design: Aripiprazole (urine test result) / Dehydroaripiprazole (urine test result): unit not given here; details: for Aripiprazole (urine test result) / Dehydroaripiprazole (urine test result): human urine, patients prescribed 5 mg/day Abilify
Procedure: as §1
The urine of 25 patients who were prescribed 5 mg of Abilify® (aripiprazole) was tested for compliance over 5 days (Table 11). […] Without OPC3373, only 47% were determined to be positive with patients just being below the reporting cutoffs for both aripiprazole and dehydroaripiprazole. Thus, use of OPC3373 as a urine biomarker at this lower dose adds a great deal of value to compliance monitoring for Abilify®.

[7] = Urine testing for compliance over 5 days, patients prescribed 30 mg/day Abilify (Example 3); type: in vivo, human; details: for urine concentration: 30 mg/day Abilify, individual subjects
Procedure: as §1
The urine of 5 patients who were prescribed 30 mg of Abilify® (aripiprazole) was tested for compliance over 5 days (Table 3). […] Without OPC3373, only 93% were determined to be positive with one patient either having stopped taking their medicine between day 4 and 5 or just being below the reporting cutoffs for both aripiprazole and dehydroaripiprazole. Thus, use of OPC3373 as a urine biomarker even at this relatively high dose adds value to compliance monitoring for Abilify®.

[8] = Urine testing for compliance over 5 days, patients prescribed 20 mg/day Abilify (Example 4); type: in vivo, human; details: n 66 samples
Procedure: as §1
The urine of 22 patients who were prescribed 20 mg of Ability (e.g., aripiprazole) was tested for compliance over 5 days (Table 5). […] Without OPC3373, only 85% were determined to be positive with patients just being below the reporting cutoffs for both aripiprazole and dehydroaripiprazole. Thus, use of OPC3373 as a urine biomarker even at this relatively high dose adds value to compliance monitoring for Abilify®.

[9] = Urine testing for compliance over 5 days, patients prescribed 10 mg/day Abilify (Example 6); type: in vivo, human; details: n 111 samples
Procedure: as §1
The urine of 37 patients who were prescribed 10 mg of Abilify® (aripiprazole) was tested for compliance over 5 days (Table 9). […] Without OPC3373, only 61% were determined to be positive with patients just being below the reporting cutoffs for both aripiprazole and dehydroaripiprazole. Thus, use of OPC3373 as a urine biomarker at this dose adds value to compliance monitoring for Abilify®.

[10] = Day 1, subjects A-O (one value per subject)
[11] = Day 4, subjects A-O (one value per subject)
[12] = Day 5, subjects A-O (one value per subject)

In the case of O=C1CCc2ccc(OCCCCN3CCN(c4cccc(Cl)c4Cl)CC3)cc2N1 [Aripiprazole], the “Abilify Urine Results” value [1] is reported as 0 ng/mL and 11.1 ng/mL and 22.3 ng/mL and 9.4 ng/mL and 19.4 ng/mL and 11.6 ng/mL, the “Urine concentration, individual subject” value [2, 10] is reported as 9.0 and 0 (6×) and 7.9 and the “Urine concentration, individual subject” value [2, 11] is reported as 0. The “Urine concentration, individual subject” value [2, 12] was 10.5 and 0 (4×) and 30.9 and 6.1, the “oral dose excreted as unchanged aripiprazole in faeces” value ([3]; faeces, humans) was 8-18% and the “time of dosing until steady state serum concentrations are achieved” value ([3]; in vivo) was “two”. The “share of a dose represented in plasma” value [3] was 57%, the “oral dose excreted as unchanged aripiprazole in urine” value ([3]; urine, humans) was “Less than 1%” and the “Levels in Human Urine” value [4] was 9.5 ng/mL and <5.0 ng/mL (9×) and 32.4 ng/mL and 9.7 ng/mL and 53.3 ng/mL and 84.9 ng/mL and 38.7 ng/mL and 10 ng/mL and 0.0 ng/mL (2×) and 17.4 ng/mL and 17.9 ng/mL and 5.0 ng/mL and 39.5 ng/mL. For the same compound, the “Range of levels in Human Urine” value ([4]; over 22 specimens, * below LOQ) was 5 to 100 ng/mL, the urine concentration ([5]; Day 1, individual subjects) was 52.2 and 0 (6×) and 5.3 and 15.1 and 31.2 and 15.4 and 17.9 and 20.0 and 31.5 and 9.8 and 8.9 and 17.5 and 15.0 and 10.1 and 5.4 and 19.4 and 27.6 and 14.6 and the urine concentration ([5]; Day 4, individual subjects) was 31.7 and 19.5 and 39.3 and 10.2 and 8.9 and 12.3 and 0 (8×) and 40 and 26.7 and 45.3 and 14.5 and 6.2 and 5.7 and 7.9 and 62.3 and 19.0. The urine concentration ([5]; Day 5, individual subjects) was 22.8 and 0 (5×) and 16.4 and 9.3 and 6.9 and 32.1 and 37.1 and 16.7 and 7.4 and 57.3 and 12.3 and 14.2 (2×) and 7.5 and 17.7 and 25.3 and 5.1 and 76.7 and 9.6, the “urine concentration, Avg” value [5] was 15.29 and the “urine concentration, Max” value [5] was 76.70. The “urine concentration, Min” value [5] was 0.00, the “Aripiprazole (urine test result)” value ([6]; Day 1) was 10.1 and 0 (13×) and 9 and 7.5 and 5.0 and 9.7 and 8.5 and 8.8 and 8.4 and 13.1 and 6.4 and 38.4 and 5.4 and the “Aripiprazole (urine test result)” value ([6]; Day 4) was 21.5 and 11.3 and 6.6 (2×) and 0.0 (2×) and 5.2 and 0 (9×) and 32.4 and 13.1 and 15.6 and 6.5 and 10.3 and 7.5 and 5.5 and 9.5 and 11.8. The “Aripiprazole (urine test result)” value ([6]; Day 5) was 10.2 and 5.1 and 7.3 and 0 (15×) and 14.9 and 0.0 and 5.3 and 10.1 and 12.7 and 9.7 and 31.6.
In the case of O=c1ccc2ccc(OCCCCN3CCN(c4cccc(Cl)c4Cl)CC3)cc2[nH]1 [Dehydroaripiprazole, dehydroaripiprazole], the “Abilify Urine Results” value [1] is reported as 0 ng/mL (3×) and 6.5 ng/mL and 5.2 ng/mL and 6.4 ng/mL, the “Urine drug/metabolite concentration, Extremes” value ([2]; Day 1) is reported as 0-7.4 and the “Urine drug/metabolite concentration, Mean +/- SD” value ([2]; Day 1) is reported as 0.5 +/− 1.9. For the same compound, the “Urine drug/metabolite concentration, Median” value ([2]; Day 1) was 0, the “Urine concentration, individual subject” value [2, 10] was 0 and the “Urine drug/metabolite concentration, Extremes” value ([2]; Day 4) was 0-0. For the same compound, the “Urine drug/metabolite concentration, Mean +/- SD” value ([2]; Day 4) was 0 +/− 0, the “Urine drug/metabolite concentration, Median” value ([2]; Day 4) was 0 and the “Urine concentration, individual subject” value [2, 11] was 0. The “Urine drug/metabolite concentration, Extremes” value ([2]; Day 5) was 0-0, the “Urine drug/metabolite concentration, Mean +/- SD” value ([2]; Day 5) was 0 +/− 0 and the “Urine drug/metabolite concentration, Median” value ([2]; Day 5) was 0. For the same compound, the “Urine concentration, individual subject” value [2, 12] was 0 (13×) and 10.7 and 0.0, the “urine concentration, Avg” value ([2]; n 45 samples) was 0.24 and the “urine concentration, Max” value ([2]; n 45 samples) was 10.7. For the same compound, the “urine concentration, Min” value ([2]; n 45 samples) was 0, the “share of a dose represented in plasma” value [3] was 20% and the urine concentration ([7]; Day 1) was 11.5 and 29.2 and 6.8 and 56.9 and 14.1. The urine concentration ([7]; Day 4) was 14.1 and 84.8 and 11.0 and 36.3 and 16.6, the urine concentration ([7]; Day 5) was 0 and 17.0 and 8.9 and 89.7 and 28.1 and the “urine concentration, Avg” value ([7]; 30 mg/day, n 15 samples) was 28.33 ng/mL. The “urine concentration, Max” value ([7]; 30 mg/day, n 15 samples) was 89.70 ng/mL, the “urine concentration, Min” value ([7]; 30 mg/day, n 15 samples) was 0.00 ng/mL and the “Levels in Human Urine” value [4] was <5.0 ng/mL (7×) and 5.1 ng/mL (2×) and 14.1 ng/mL and 0.0 ng/mL (5×) and 17.8 ng/mL and 20.1 ng/mL and 5.9 ng/mL and 0 ng/mL and 15.8 ng/mL and 8.8 ng/mL and 56.1 ng/mL. For the same compound, the “Range of levels in Human Urine” value ([4]; over 22 specimens, * below LOQ) was 5 to 75 ng/mL, the “urine concentration, Avg” value [8] was 12.30 and the “urine concentration, Max” value [8] was 91.40. The “urine concentration, Min” value [8] was 0.00, the urine concentration ([5]; Day 1, individual subjects) was 27.9 and 0 (6×) and 21 and 10.1 and 5.9 and 11.4 (2×) and 12.8 and 25.4 and 12.3 and 6.7 and 6.1 and 5.5 and 9.6 and 5.2 and 5.1 and 14.6 and 6.6 and the urine concentration ([5]; Day 4, individual subjects) was 16.8 and 7.4 and 20.7 and 7.5 and 0 (11×) and 24 and 21.0 and 10.1 and 25.8 and 8.6 and 8.1 and 14.3 and 8.0. The urine concentration ([5]; Day 5, individual subjects) was 12.8 and 0 (9×) and 5.2 and 17.0 and 24.1 (2×) and 23.1 and 23.9 and 33.3 and 12.3 and 6.5 and 11.2 and 16.6 and 0.0 and 24.9, the “urine concentration, Avg” value [5] was 8.76 and the “urine concentration, Max” value [5] was 33.30. For the same compound, the “urine concentration, Min” value [5] was 0.00, the “urine concentration, Max” value [9] was 64.8 and the “urine concentration, Min” value [9] was 0. For the same compound, the “urine concentration, avg” value [9] was 6.27, the “Urine drug/metabolite concentration, Extremes” value ([6]; 5 mg/day Abilify, Day 1) was 0-6.5 and the “Urine drug/metabolite concentration, Mean +/- SD” value ([6]; 5 mg/day Abilify, Day 1) was 2.3 +/− 3.2. The “Urine drug/metabolite concentration, Median” value ([6]; 5 mg/day Abilify, Day 1) was 0, the “Urine drug/metabolite concentration, Extremes” value ([6]; 5 mg/day Abilify, Day 4) was 0-6.1 and the “Urine drug/metabolite concentration, Median” value ([6]; 5 mg/day Abilify, Day 4) was 0. The “Urine drug/metabolite concentration, Extremes” value ([6]; 5 mg/day Abilify, Day 5) was 0-8.2, the “Urine drug/metabolite concentration, Median” value ([6]; 5 mg/day Abilify, Day 5) was 0 and the “urine concentration, Avg” value ([6]; 5 mg/day Abilify, n 75 samples) was 1.96. For the same compound, the “urine concentration, Max” value ([6]; 5 mg/day Abilify, n 75 samples) was 17.1, the “urine concentration, Min” value ([6]; 5 mg/day Abilify, n 75 samples) was 0 and the “Dehydroaripiprazole (urine test result)” value ([6]; Day 1) was 6.6 and 0 (20×) and 5.1 and 7.4 and 5.3 and 8.7. For the same compound, the “Dehydroaripiprazole (urine test result)” value ([6]; Day 4) was 10.2 and 0 (19×) and 17.1 and 8.0 and 7.5 and 7.4 and 8.4 and the “Dehydroaripiprazole (urine test result)” value ([6]; Day 5) was 5.7 and 0 (19×) and 5.2 and 5.5 and 15.8 and 8.2 and 15.1.
In the case of O=C(O)CCCOc1ccc2c(c1)NC(=O)CC2 [OPC3373, 4-[(2-Oxo-1,2,3,4-tetrahydro-7-quinolinyl)oxy]butanoic acid], the “share of a dose represented in plasma” value [3] is given as 2%, the “recovered from a dose as urinary metabolite” value ([3]; urine, reported by Baselt) is given as 19% and the “Range of levels in Human Urine” value ([4]; human, in vivo) is given as 10*-1500 ng/mL.
